Reference: patent US20230113037A1 (Bayer Aktiengesellschaft, priority 2019, published 2023)
Like-named read-outs stand apart in the source and are kept apart here.

Legend:
[1] = target: T1, AHR (Homo sapiens, UniProt P35869); test: In vitro assay 1: antagonism in human cell line (AHR transactivation, firefly luciferase reporter, kynurenic acid prestimulated); assay type: cell-based; details: AHR Antagonism Human IC50 [M]
T1 construct: U87 MG glioblastoma cells (ATCC #HTB-14) endogenously expressing AHR; endogenous in cells; host or cells: U87 MG glioblastoma cells (ATCC #HTB-14)
T1 sequence (P35869 11-848): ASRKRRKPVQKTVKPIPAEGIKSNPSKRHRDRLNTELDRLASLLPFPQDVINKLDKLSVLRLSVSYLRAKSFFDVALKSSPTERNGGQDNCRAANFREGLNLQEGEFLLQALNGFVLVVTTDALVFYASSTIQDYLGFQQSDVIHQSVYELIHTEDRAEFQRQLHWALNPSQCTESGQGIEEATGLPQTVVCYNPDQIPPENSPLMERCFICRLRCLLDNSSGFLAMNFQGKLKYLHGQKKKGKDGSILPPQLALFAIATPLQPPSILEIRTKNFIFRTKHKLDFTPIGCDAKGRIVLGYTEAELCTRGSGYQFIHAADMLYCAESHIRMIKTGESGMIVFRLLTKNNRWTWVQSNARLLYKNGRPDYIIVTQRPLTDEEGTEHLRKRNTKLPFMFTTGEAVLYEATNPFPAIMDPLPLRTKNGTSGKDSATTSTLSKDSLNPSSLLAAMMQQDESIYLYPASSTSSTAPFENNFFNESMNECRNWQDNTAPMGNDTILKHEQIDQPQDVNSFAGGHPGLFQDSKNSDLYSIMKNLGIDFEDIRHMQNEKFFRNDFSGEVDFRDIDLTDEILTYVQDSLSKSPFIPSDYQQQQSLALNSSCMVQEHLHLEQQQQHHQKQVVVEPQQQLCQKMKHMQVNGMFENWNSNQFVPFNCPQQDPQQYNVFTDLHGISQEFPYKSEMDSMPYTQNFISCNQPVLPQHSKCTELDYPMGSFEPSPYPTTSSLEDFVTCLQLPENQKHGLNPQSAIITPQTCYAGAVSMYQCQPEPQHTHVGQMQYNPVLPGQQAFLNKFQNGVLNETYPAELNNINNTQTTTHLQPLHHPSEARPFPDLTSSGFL
Method in brief: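 U87 MG + DRE-firefly/constitutive-Renilla stable reporters; kynurenic acid prestim; dual-luc read; Renilla = tox; normalized vs pos/neg controls (pos: 150 μM KYNA + 5 μM staurosporine).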

[2] = target: T2, AHR (Mus musculus, UniProt P30561); test: In vitro assay 3: antagonism in mouse cell line (AHR transactivation, firefly luciferase reporter, kynurenic acid prestimulated); assay type: cell-based
T2 sequence (P30561 1-848 P471L/N533S/M589L): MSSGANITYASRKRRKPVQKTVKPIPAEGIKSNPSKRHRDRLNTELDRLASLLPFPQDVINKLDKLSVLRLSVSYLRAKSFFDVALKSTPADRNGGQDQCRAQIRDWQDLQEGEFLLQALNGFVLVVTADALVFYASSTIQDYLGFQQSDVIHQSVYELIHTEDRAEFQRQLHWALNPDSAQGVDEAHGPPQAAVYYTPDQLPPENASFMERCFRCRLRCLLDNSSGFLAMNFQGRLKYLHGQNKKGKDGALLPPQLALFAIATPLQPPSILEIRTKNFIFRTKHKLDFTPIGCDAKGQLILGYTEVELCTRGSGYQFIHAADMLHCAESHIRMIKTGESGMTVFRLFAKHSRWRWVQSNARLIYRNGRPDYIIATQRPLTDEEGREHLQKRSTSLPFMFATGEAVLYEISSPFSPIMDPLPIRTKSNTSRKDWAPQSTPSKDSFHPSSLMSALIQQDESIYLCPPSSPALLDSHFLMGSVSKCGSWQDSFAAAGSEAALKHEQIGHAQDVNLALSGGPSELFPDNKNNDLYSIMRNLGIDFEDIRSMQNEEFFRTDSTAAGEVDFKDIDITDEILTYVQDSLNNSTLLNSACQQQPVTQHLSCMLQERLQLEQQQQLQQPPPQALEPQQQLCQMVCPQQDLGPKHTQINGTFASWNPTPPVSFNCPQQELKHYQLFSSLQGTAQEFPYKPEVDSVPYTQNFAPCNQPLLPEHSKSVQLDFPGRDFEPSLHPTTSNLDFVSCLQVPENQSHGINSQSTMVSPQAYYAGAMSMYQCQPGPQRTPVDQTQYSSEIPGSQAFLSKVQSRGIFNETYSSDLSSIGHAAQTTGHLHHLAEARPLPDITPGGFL
Method in brief: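 Cells were first stimulated with kynurenic acid, then exposed to test compound, after which firefly luciferase from a DRE-containing AHR reporter was read out. Signal was scaled between positive and negative controls. Cells not given kynurenic acid provided the inhibition reference.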

[3] = mouse Hepa 1c1c7 cells, 200 μM kynurenic acid, 20 hours, read-out: AHR Antagonism Mouse IC50
[4] = Hepa 1c1c7 cells, 200 μM kynurenic acid, 20 hours, firefly luciferase reporter, read-out: AHR Antagonism Mouse IC50

Compound | IC50 [1] [M] | IC50 [2, 3] [nM] | IC50 ([1]; firefly luciferase reporter) [M] | IC50 [2, 4] [nM] | IC50 ([2]; read-out: AHR Antagonism Mouse IC50, mouse Hepa 1c1c7 cells, 200 μM kynurenic acid, 20 hours) [nM]
O=C1NCCCC[C@H]1Nc1nc2ccccc2c2nc(-c3ccccc3OC(F)F)nn12 [Example 470, (3R)-3-({2-[2-(difluoromethoxy)phenyl][1,2,4]triazolo[1,5-c]quinazolin-5-yl}amino)azepan-2-one] | 1.34e-09 | 0.5 | – | – | –
Cc1ccccc1-c1nc2c3ccccc3nc(NC3CCCNC3=O)n2n1 (single isomer, unassigned) [Example 48, 3-{[2-(2-methylphenyl)[1,2,4]triazolo[1,5-c]quinazolin-5-yl]amino}piperidin-2-one] | 3.2e-08 | 62 | – | – | –
O=C1NCCCC[C@H]1Nc1nc2ccccc2c2nc(-c3cccnc3C(F)(F)F)nn12 [Example 488, (3R)-3-({2-[2-(trifluoromethyl)pyridin-3-yl][1,2,4]triazolo[1,5-c]quinazolin-5-yl}amino)azepan-2-one] | 6.4e-08 | 12.3 | – | – | –
CCn1cc(-c2nc3c4cccc(F)c4nc(N[C@@H]4CNCCNC4=O)n3n2)cn1 [Example 961, (6R)-6-{[2-(1-ethyl-1H-pyrazol-4-yl)-7-fluoro-[1,2,4]triazolo[1,5-c]quinazolin-5-yl]amino}1-4,-diazepan-5-one] | – | – | 7.95e-07 | 272 | –
COc1ccc(-c2nc3c4c(Br)cccc4nc(N[C@@H]4CCCCNC4=O)n3n2)cc1 [Example 164] | 2.44e-09 | 4.54 | – | – | –
CCC[C@@H](Nc1nc2ccccc2c2nc(-c3ccncc3F)nn12)C(=O)NC [Example 486, N^2-[2-(3-fluoropyridin-4-yl)[1,2,4]triazolo[1,5-c]quinazolin-5-yl]-N-methyl-D-norvalinamide] | 3.34e-07 | 184 | – | – | –
O=C1NCCCC[C@@H]1Nc1nc2c(Br)cccc2c2nc(-c3ccc(Cl)cc3OC(F)(F)F)nn12 [Example 572, (3S)-3-({7-bromo-2-[4-chloro-2-(trifluoromethoxy)phenyl][1,2,4]triazolo[1,5-c]quinazolin-5-yl}amino)azepan-2-one] | > 2e-05 | 131 | – | – | –
COc1ccc(-c2nc3c4cccc(Br)c4nc(N[C@@H]4CN(C)CCNC4=O)n3n2)cc1 [Example 995, (6R)-6-{[7-bromo-2-(4-methoxyphenyl)[1,2,4]triazolo[1,5-c]quinazolin-5-yl]amino}-1-methyl-1,4-diazepan-5-one] | – | – | 6.97e-10 | 2.11 | –
CCC[C@@H](Nc1nc2ccccc2c2nc(-c3ccccc3OC(F)(F)F)nn12)C(=O)NC [Example 464, N-methyl-N^2-{2-[2-(trifluoromethoxy)phenyl][1,2,4]triazolo[1,5-c]quinazolin-5-yl}-D-norvalinamide] | 5.89e-08 | 3.91 | – | – | –
O=C1NCCCC[C@H]1Nc1nc2cccc(C3CC3)c2c2nc(-c3cccc(F)c3)nn12 [Example 175, (3R)-3-{[10-cyclopropyl-2-(3-fluorophenyl)[1,2,4]triazolo[1,5-c]quinazolin-5-yl]amino}azepan-2-one] | 3.24e-08 | 22.3 | – | – | –
N#Cc1cccc2c1nc(N[C@@H]1CCCCNC1=O)n1nc(-c3cnn(C4CCC4)c3)nc21 [Example 762, 2-(1-cyclobutyl-1H-pyrazol-4-yl)-5-{[(3R)-2-oxoazepan-3-yl]amino}[1,2,4]triazolo[1,5-c]quinazoline-7-carbonitrile] | 2.44e-09 | – | – | – | 7.01
COc1ccc(-c2nc3c4ccccc4nc(N[C@H](C)C(=O)NCCN(C)C)n3n2)cc1 [Example 787, N-[2-(dimethylamino)ethyl]-N^2-[2-(4-methoxyphenyl)[1,2,4]triazolo[1,5-c]quinazolin-5-yl]-D-alaninamide] | – | – | 2.26e-08 | 38.2 | –
COc1ccc(-c2nc3c4cccc(Br)c4nc(N[C@H](C)C(=O)N4C[C@H]5C[C@@H]4CN5C)n3n2)cc1 [Example 903, (2R)-2-{[7-bromo-2-(4-methoxyphenyl)[1,2,4]triazolo[1,5-c]quinazolin-5-yl]amino}-1-[(1R,4R)-5-methyl-2,5-diazabicyclo[2.2.1]heptan-2-yl]propan-1-one] | – | – | 4.09e-09 | 6.59 | –
O=C1NCCCC[C@H]1Nc1nc2c(Br)cccc2c2nc(-c3cnn(C4CCC4)c3)nn12 [Example 824, (3R)-3-{[7-bromo-2-(1-cyclobutyl-1H-pyrazol-4-yl)[1,2,4]triazolo[1,5-c]quinazolin-5-yl]amino}azepan-2-one] | – | – | 9.98e-10 | 0.845 | –
COc1ccc(-c2nc3c4cccc(OCC(C)(C)O)c4nc(N[C@@H]4CCCCNC4=O)n3n2)cc1 [Example 997, (3R)-3-{[7-(2-hydroxy-2-methylpropoxy)-2-(4-methoxyphenyl)[1,2,4]triazolo[1,5-c]quinazolin-5-yl]amino}azepan-2-one] | – | – | 8.11e-08 | 138 | –
N#Cc1ccc(-c2nc3c4cccc(Br)c4nc(N[C@@H]4CCCCNC4=O)n3n2)cc1 [Example 558, 4-(7-bromo-5-{[(3R)-2-oxoazepan-3-yl]amino}[1,2,4]triazolo[1,5-c]quinazolin-2-yl)benzonitrile] | 5.96e-09 | 0.276 | – | – | –
O=C1NCCNC[C@H]1Nc1nc2ccccc2c2nc(-c3ccccc3C(F)(F)F)nn12 [Example 262, (6R)-6-({2-[2-(trifluoromethyl)phenyl][1,2,4]triazolo[1,5-c]quinazolin-5-yl}amino)-1,4-diazepan-5-one] | 1.37e-06 | 85.7 | – | – | –
Cc1cc(-c2nc3c4cccc(C(F)(F)F)c4nc(N[C@@H]4CCCCNC4=O)n3n2)n(C)n1 [Example 740, (3R)-3-{[2-(1,3-dimethyl-1H-pyrazol-5-yl)-7-(trifluoromethyl)[1,2,4]triazolo[1,5-c]quinazolin-5-yl]amino}azepan-2-one] | 1.22e-09 | 1.65 | – | – | –
COc1ccc(-c2nc3c4cccc(C(F)(F)F)c4nc(N[C@@H]4CNCCNC4=O)n3n2)cc1 [Example 422, (6R)-6-{[2-(4-methoxyphenyl)-7-(trifluoromethyl)[1,2,4]triazolo[1,5-c]quinazolin-5-yl]amino}-1,4-diazepan-5-one] | 3.61e-10 | 0.927 | – | – | –
COc1ccc(-c2nc3c4cccc(CSC)c4nc(N[C@@H]4CCCCNC4=O)n3n2)cc1 [Example 863, (3R)-3-({2-(4-methoxyphenyl)-7-[(methylsulfanyl)methyl][1,2,4]triazolo[1,5-c]quinazolin-5-yl}amino)azepan-2-one] | – | – | 2.98e-09 | 12.9 | –
COc1ccc(-c2nc3c4cccc(Br)c4nc(N[C@H](C)C(=O)N4CCN(C(=O)OC(C)(C)C)CC4)n3n2)cc1 [Example 883, tert-butyl 4-{N-[7-bromo-2-(4-methoxyphenyl)[1,2,4]triazolo[1,5-c]quinazolin-5-yl]-D-alanyl}piperazine-1-carboxylate] | – | – | 5.84e-09 | 7.79 | –
